# Article PMC6359284, “Identification, Characterization, and Optimization of Integrin αvβ6-Targeting Peptides from a One-Bead One-Compound (OBOC) Library: Towards the Development of Positron Emission Tomography (PET) Imaging Agents” (Molecules, 2019)
# Where “and” joins values, the source holds several entries; their conditions need not be identical. Identical values can stand only once. Like-named read-outs stand apart in the source and are kept apart here. Square brackets hold non-standard residues; d marks the D form. Primed or numbered codes have the meaning given here. Ends that are not written are not given here. Peptide text beside a SMILES is read from it. * marks the point of attachment. (18F)FB = 4-[18F]fluorobenzoyl, radiolabelled form of FB, O=C(c1ccc([18F])cc1)*; PEG12 = NCCOCCOCCOCCOCCOCCOCCOCCOCCOCCOCCOCCOCCC(=O)O; Benzoyl(4-F) = O=C(c1ccc(F)cc1)*; PEG28′ = not defined here
# How the values were obtained:
# integrin αvβ8 = target: T1, integrin αvβ8 (Homo sapiens, UniProt P06756+P26012); assay: Competitive binding ELISA, purified integrin αvβ8; settings: competitive ELISA vs biotinylated TGFβ1-LAP, n = 3
# T1 construct: purchased R&D Systems
# Experimental: (§1) Competitive binding ELISAs were performed to evaluate the binding affinity of each peptide relative to each integrin’s biotinylated natural ligand (transforming growth factor beta 1 latency-associated peptide or TGFβ1-LAP (G&P Biosciences, Santa Clara, CA, USA) for integrins αvβ6 and αvβ8, fibronectin (Thermo Fisher, Waltham, MA, USA) for integrin αvβ1, and vitronectin (Thermo Fisher) for integrins αvβ3 and αvβ5), as previously described. In brief, anti-αv antibody (P2W7, 5 μg/mL, Abcam) was plated (50 μL/well) at 37 °C for 1 h, washed with PBS (3×), and blocked overnight with blocking buffer (300 μL/well, 5% bovine serum albumin (BSA), 1% Tween 20, in PBS), followed by washing with PBS (3×). […] The plate was incubated at 37 °C for 1 h, then washed with wash buffer (3×). A 1:1000 dilution of ExtrAvidin Horseradish Peroxidase (HRP) was added to each well (50 μL/well), incubated at 37 °C for 1 h, and then washed with wash buffer (3×). The ExtrAvidin HRP was detected with 3,3′,5,5′-tetramethylbenzidine (50 μL/well, Promega, Madison, WI, USA) for 10–15 min at room temperature. The reaction was stopped by adding 1N H2SO4 (50 μL/well) and the absorbance was measured in a Multiscan Ascent plate reader (Thermo Fisher) at 450 nm. Half-maximal inhibitory concentration (IC50) of peptides was determined fitting to sigmoidal dose-response model in GraphPad Prism 5.0 (San Diego, CA, USA).
# integrin αvβ6 = target: T2, integrin αvβ6 (Homo sapiens, UniProt P06756+P18564); assay: Competitive binding ELISA, purified integrin αvβ6; settings: for selectivity ratio for integrin αvβ6 compared to αvβ5: from ELISA IC50 values
# T2 construct: purchased R&D Systems
# Experimental: as §1
# DX3puroβ6 (αvβ6+) cells = assay: 18F-radiolabeled peptide cell binding assay, αvβ6+ cells; type: cell-based; settings: 60 min incubation at 37 °C, n = 3
# Experimental: (§2) Cell binding assay was performed as previously described. […] The ^18F-radiolabeled peptide was prepared in a stock solution of 148 kBq in 1 mL PBS (pH 7.2). Aliquots of each ^18F-radiolabeled peptide (50 μL, 7.4 kBq per sample) were added to each cell sample and incubated at 37 °C for 1 h with frequent suspension. After incubation, each sample was centrifuged and the supernatant was collected. The cell pellet was washed with 500 μL PBS, centrifuged, and the supernatant was combined with the previously collected supernatant samples. The cell pellet was resuspended in 600 μL PBS and transferred to gamma counter tubes. All pellet and supernatant samples were measured in a Wizard 1470 gamma counter (Perkin Elmer, Waltham, MA, USA). Cell binding percentage for each cell line was calculated as the radioactivity associated, with pellet divided by the total radioactivity associated with both the pellet and supernatant.
# DX3puro (αvβ6−) cells = assay: 18F-radiolabeled peptide cell binding assay, αvβ6− cells; type: cell-based; settings: 60 min incubation at 37 °C, n = 3
# Experimental: as §2
# [1] = Serum stability assay in mouse serum; type: in vitro ADME; settings: 37 °C, radio-RP-HPLC
# Experimental: Peptide stability was evaluated in mouse serum as previously described. In brief, formulated ^18F-radiolabeled peptide (~3.7 MBq in PBS) was incubated with mouse serum (500 μL, Sigma Aldrich, St. Louis, MO) at 37 °C for 1 h.
# integrin αvβ3 = target: T3, integrin αvβ3 (Homo sapiens, UniProt P05106+P06756); assay: Competitive binding ELISA, purified integrin αvβ3; settings: competitive ELISA vs biotinylated vitronectin, n = 3
# T3 construct: purchased R&D Systems
# Experimental: as §1
# [2] = competitive ELISA vs biotinylated TGFβ1-LAP, n = 3, read-out: IC50 (μM) αvβ6
compound,measurement,setting,value
CSCC[C@H](NC(=O)[C@H](CC(C)C)NC(=O)[C@H](CC(=O)O)NC(=O)CNC(=O)[C@@H](N)CCCNC(=N)N)C(=O)N[C@@H](CCCCN)C(=O)N[C@@H](CC(C)C)C(=O)N[C@@H](C)C(=O)N[C@@H](CCCCNC(=O)c1ccc(F)cc1)C(N)=O [compound 2] (H-RGDLMKLAK(Benzoyl(4-F))-NH2; N-terminus assumed),IC50,integrin αvβ8,2.6 ± 0.35 µM
same,IC50,integrin αvβ6,0.95 ± 0.17 µM
same,selectivity ratio for integrin αvβ6 compared to αvβ5,integrin αvβ6,> 100 :1
CC(C)C[C@H](NC(=O)[C@H](Cc1ccc(O)cc1)NC(=O)[C@@H](NC(=O)[C@H](CC(C)C)NC(=O)[C@H](CC(=O)O)NC(=O)CNC(=O)[C@@H](N)C(C)C)[C@@H](C)O)C(=O)N[C@@H](CCCCN)C(=O)N[C@@H](CCCCNC(=O)c1ccc(F)cc1)C(N)=O [compound 1] (H-VGDLTYLKK(Benzoyl(4-F))-NH2; N-terminus assumed),IC50,integrin αvβ8,5.3 ± 0.14 µM
same,"selectivity ratio for integrin αvβ6 compared to the other integrins (αvβ1, αvβ3, and αvβ5)",integrin αvβ6,> 200 :1
same,IC50,integrin αvβ6; read-out: IC50 (μM) αvβ6,0.45 ± 0.06 µM
[^18F]FB-PEG28-A20FMDV2-K16R-PEG28 [reference compound],% binding to DX3puroβ6 (αvβ6+) cells,DX3puroβ6 (αvβ6+) cells,77.1 ± 0.1%
same,% binding to DX3puro (αvβ6−) cells,DX3puro (αvβ6−) cells,1.5 ± 0.1%
VGDLTYLKK([^18F]FB)-PEG28 (VGDLTYLKK((18F)FB)[PEG28′]) [[^18F]1f],% binding to DX3puroβ6 (αvβ6+) cells,DX3puroβ6 (αvβ6+) cells,less than 2%
same,% Intact (1 h),[1],> 95% and 95%
same,% binding to DX3puro (αvβ6−) cells,DX3puro (αvβ6−) cells,less than 2%
CC(C)C[C@H](NC(=O)[C@H](Cc1ccc(O)cc1)NC(=O)[C@@H](NC(=O)[C@H](CC(C)C)NC(=O)[C@H](CC(=O)O)NC(=O)CNC(=O)[C@@H](NC(=O)c1ccc(F)cc1)C(C)C)[C@@H](C)O)C(=O)N[C@@H](CCCCN)C(=O)N[C@@H](CCCCN)C(N)=O [1a] ({Benzoyl(4-F)}-VGDLTYLKK-NH2),IC50,integrin αvβ6; [2],0.81 ± 0.09 µM
CC[C@H](C)[C@H](NC(=O)CN)C(=O)N[C@@H](CC(=O)O)C(=O)N[C@@H](CC(C)C)C(=O)N[C@H](C(=O)N[C@@H](CO)C(=O)N[C@@H](CC(C)C)C(=O)N[C@H](C(=O)N[C@@H](CCCCNC(=O)c1ccc(F)cc1)C(N)=O)[C@@H](C)O)[C@@H](C)O [compound 4] (H-GIDLTSLTK(Benzoyl(4-F))-NH2; N-terminus assumed),IC50,integrin αvβ3,> 100 µM
same,IC50,integrin αvβ6; [2],> 100 µM
VGDLTYLKK([^18F]FB) (VGDLTYLKK((18F)FB)-NH2) [[^18F]1],% binding to DX3puroβ6 (αvβ6+) cells,DX3puroβ6 (αvβ6+) cells,12.8 ± 1.9%
same,% Intact (1 h),[1],25%
same,% binding to DX3puro (αvβ6−) cells,DX3puro (αvβ6−) cells,11.7 ± 2.2%
FB-VGDLTYLKK([^18F]FB)-PEG28 ({Benzoyl(4-F)}-VGDLTYLKK((18F)FB)[PEG28′]) [[^18F]1h],% binding to DX3puroβ6 (αvβ6+) cells,DX3puroβ6 (αvβ6+) cells,less than 2%
same,% Intact (1 h),[1],> 95% and 95%
same,% binding to DX3puro (αvβ6−) cells,DX3puro (αvβ6−) cells,less than 2%
CN[C@H](C(=O)NCC(=O)N[C@@H](CC(=O)O)C(=O)N[C@@H](CC(C)C)C(=O)N[C@H](C(=O)N[C@@H](Cc1ccc(O)cc1)C(=O)N[C@@H](CC(C)C)C(=O)N[C@@H](CCCCN)C(=O)N[C@@H](CCCCNC(=O)c1ccc(F)cc1)C(N)=O)[C@@H](C)O)C(C)C [1c],IC50,integrin αvβ6; [2],> 5 µM
CC(C)C[C@H](NC(=O)[C@H](Cc1ccc(O)cc1)NC(=O)[C@@H](NC(=O)[C@H](CC(C)C)NC(=O)[C@H](CC(=O)O)NC(=O)CNC(=O)[C@@H](N)C(C)C)[C@@H](C)O)C(=O)N[C@@H](CCCCN)C(=O)N[C@@H](CCCCNC(=O)c1ccc(F)cc1)C(=O)NCCOCCOCCOCCOCCOCCOCCOCCOCCOCCOCCOCCOCCOCCOCCOCCOCCOCCOCCOCCOCCOCCOCCOCCOCCOCCOCCOCCOCCC(N)=O [1f],% binding to DX3puroβ6 (αvβ6+) cells,DX3puroβ6 (αvβ6+) cells,< 2%
same,% Intact (1 h),[1],> 95%
same,IC50,integrin αvβ6; [2],3.7 ± 1 µM
RGDLADLRK([^18F]FB) (RGDLADLRK((18F)FB)) [[^18F]3],% binding to DX3puroβ6 (αvβ6+) cells,DX3puroβ6 (αvβ6+) cells,7.7 ± 3.8%
same,% Intact (1 h),[1],0%
same,% binding to DX3puro (αvβ6−) cells,DX3puro (αvβ6−) cells,5.3 ± 2.8%
[^18F]FB-VGDLTYLKK ({(18F)FB}-VGDLTYLKK-NH2) [[^18F]1a],% binding to DX3puroβ6 (αvβ6+) cells,DX3puroβ6 (αvβ6+) cells,less than 2%
same,% binding to DX3puro (αvβ6−) cells,DX3puro (αvβ6−) cells,less than 2%
CC(=O)N[C@H](C(=O)NCC(=O)N[C@@H](CC(=O)O)C(=O)N[C@@H](CC(C)C)C(=O)N[C@H](C(=O)N[C@@H](Cc1ccc(O)cc1)C(=O)N[C@@H](CC(C)C)C(=O)N[C@@H](CCCCN)C(=O)N[C@@H](CCCCNC(=O)c1ccc(F)cc1)C(N)=O)[C@@H](C)O)C(C)C [1b],IC50,integrin αvβ6; [2],> 100 µM
CC(C)C[C@H](NC(=O)[C@H](Cc1ccc(O)cc1)NC(=O)[C@@H](NC(=O)[C@H](CC(C)C)NC(=O)[C@H](CC(=O)O)NC(=O)CNC(=O)[C@@H](NC(=O)c1ccc(F)cc1)C(C)C)[C@@H](C)O)C(=O)N[C@@H](CCCCN)C(=O)N[C@@H](CCCCNC(=O)c1ccc(F)cc1)C(=O)NCCOCCOCCOCCOCCOCCOCCOCCOCCOCCOCCOCCOCCOCCOCCOCCOCCOCCOCCOCCOCCOCCOCCOCCOCCOCCOCCOCCOCCC(N)=O [1h],% binding to DX3puroβ6 (αvβ6+) cells,DX3puroβ6 (αvβ6+) cells,< 2%
same,% Intact (1 h),[1],> 95%
same,IC50,integrin αvβ6; [2],1.47 ± 0.23 µM
CC(C)C[C@H](NC(=O)[C@H](Cc1ccc(O)cc1)NC(=O)[C@@H](NC(=O)[C@H](CC(C)C)NC(=O)[C@H](CC(=O)O)NC(=O)CNC(=O)[C@@H](NC(=O)CCOCCOCCOCCOCCOCCOCCOCCOCCOCCOCCOCCOCCN)C(C)C)[C@@H](C)O)C(=O)N[C@@H](CCCCN)C(=O)N[C@@H](CCCCNC(=O)c1ccc(F)cc1)C(N)=O [1d] (H-[PEG12]VGDLTYLKK(Benzoyl(4-F))-NH2; N-terminus assumed),IC50,integrin αvβ6; [2],> 100 µM
RGDLRELAK([^18F]FB) (RGDLRELAK((18F)FB)) [[^18F]5],% binding to DX3puroβ6 (αvβ6+) cells,DX3puroβ6 (αvβ6+) cells,6.4 ± 0.1%
same,% Intact (1 h),[1],0%
same,% binding to DX3puro (αvβ6−) cells,DX3puro (αvβ6−) cells,5.9 ± 0.8%
VGDLTYLKK([^18F]FB)KVART [[^18F]1i],% binding to DX3puroβ6 (αvβ6+) cells,DX3puroβ6 (αvβ6+) cells,5.0 ± 0.5%
same,% Intact (1 h),[1],> 99% and 99%
CC(=O)N[C@H](C(=O)NCC(=O)N[C@@H](CC(=O)O)C(=O)N[C@@H](CC(C)C)C(=O)N[C@H](C(=O)N[C@@H](Cc1ccc(O)cc1)C(=O)N[C@@H](CC(C)C)C(=O)N[C@@H](CCCCN)C(=O)N[C@@H](CCCCNC(=O)c1ccc(F)cc1)C(=O)NCCOCCOCCOCCOCCOCCOCCOCCOCCOCCOCCOCCOCCOCCOCCOCCOCCOCCOCCOCCOCCOCCOCCOCCOCCOCCOCCOCCOCCC(N)=O)[C@@H](C)O)C(C)C [1g],IC50,integrin αvβ6; [2],> 100 µM
CC(C)C[C@H](NC(=O)[C@H](Cc1ccc(O)cc1)NC(=O)[C@@H](NC(=O)[C@H](CC(C)C)NC(=O)[C@H](CC(=O)O)NC(=O)CNC(=O)[C@@H](NC(=O)c1ccc(F)cc1)C(C)C)[C@@H](C)O)C(=O)N[C@@H](CCCCN)C(=O)N[C@@H](CCCCNC(=O)c1ccc(F)cc1)C(N)=O [1e],IC50,integrin αvβ6; [2],0.84 ± 0.36 µM
CC(C)C[C@H](NC(=O)[C@H](CC(=O)O)NC(=O)CNC(=O)[C@@H](N)CCCNC(=N)N)C(=O)N[C@@H](C)C(=O)N[C@@H](CC(=O)O)C(=O)N[C@@H](CC(C)C)C(=O)N[C@@H](CCCNC(=N)N)C(=O)N[C@@H](CCCCNC(=O)c1ccc(F)cc1)C(N)=O [compound 3] (H-RGDLADLRK(Benzoyl(4-F))-NH2; N-terminus assumed),selectivity ratio for integrin αvβ6 compared to αvβ5,integrin αvβ6,> 100 :1
